Test results as given in the supplement of paper PMC10307832.

Columns and labels:
Assay in all cases: relative viability (nuclei count vs DMSO), 5 days (fraction); higher = more cells survive
[1] = compound: Cc1nc(C(=O)NCC(=O)O)c(O)c2ccc(Oc3ccccc3)cc12 [FG-4592] + CCNC(=O)c1noc(-c2cc(C(C)C)c(O)cc2O)c1-c1ccc(CN2CCOCC2)cc1 [Luminespib] (partner 0.01 µM)
How it was run: (§1)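 Lung cancer cell lines were pin-tool dosed in 1536-well plates on the day after seeding, with either a lone drug or a fixed anchor-drug dose plus five library-drug doses (not always all listed) in √10 steps. Nuclei were counted on 4× images after 5 days. Relative viability is the ratio of treated-well to vehicle-well nuclei counts, with each value a median of duplicate plates.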

[2] = compound: CC1=CC(=C(N1C2=CC=C(C=C2)Cl)C)C(=O)CN3CCCCC3 [IU1-47] + C[C@]1(O)C[C@@H](c2nc(-c3ccc4ccc(-c5ccccc5)nc4c3)c3c(N)nccn32)C1 [Linsitinib] (partner 1 µM)
How it was run: as §1

[3] = compound: CC1=CC(=C(N1C2=CC=C(C=C2)Cl)C)C(=O)CN3CCCCC3 [IU1-47] + COc1cccc2cc(-c3nc([C@H]4CC[C@H](C(=O)O)CC4)n4ncnc(N)c34)[nH]c12 [OSI-027] (partner 0.5 µM)
How it was run: as §1

[4] = compound: CC1=CC(=C(N1C2=CC=C(C=C2)Cl)C)C(=O)CN3CCCCC3 [IU1-47] + N=C(N)NC(=N)NCCc1ccccc1 [Phenformin] (partner 250 µM)
How it was run: as §1

Cell Line	relative viability ([1]; first compound 0.08 µM)	relative viability ([1]; first compound 0.253 µM)	relative viability ([1]; first compound 0.8 µM)	relative viability ([1]; first compound 2.53 µM)	relative viability ([1]; first compound 8 µM)	relative viability ([2]; first compound 0.08 µM)	relative viability ([2]; first compound 0.253 µM)	relative viability ([2]; first compound 0.8 µM)	relative viability ([2]; first compound 2.53 µM)	relative viability ([2]; first compound 8 µM)	relative viability ([3]; first compound 0.08 µM)	relative viability ([3]; first compound 0.253 µM)	relative viability ([3]; first compound 0.8 µM)	relative viability ([3]; first compound 2.53 µM)	relative viability ([3]; first compound 8 µM)	relative viability ([4]; first compound 0.08 µM)	relative viability ([4]; first compound 0.253 µM)	relative viability ([4]; first compound 0.8 µM)	relative viability ([4]; first compound 2.53 µM)	relative viability ([4]; first compound 8 µM)
NCI-H1792	0.36	0.492	0.454	0.413	0.478	0.615	0.581	0.449	0.299	0.336	0.816	0.771	0.879	0.566	0.691	0.302	0.249	0.197	0.174	0.183
LCLC-97TM1	0.763	0.728	0.854	0.695	0.797	0.177	0.228	0.168		0.175	0.62	0.551	0.531	0.583	0.513	0.441	0.409	0.435	0.428	0.461
LCLC-103H	0.891	0.935	0.998	1.09	0.855	1.07	1.07	1.18	1.07	1.3	0.508	0.492	0.472	0.484	0.416	0.334	0.369	0.326	0.423	0.298
PC-3 [JPC-3]	0.735	0.639	0.817	0.798	0.575	0.99	0.927	0.978		1.04	0.796	0.874	0.716	0.705	0.555	0.498	0.463	0.44	0.496	0.429
BEN	0.337	0.386	0.39	0.437	0.218	1.02	0.934	1.08	0.915	0.863	0.294	0.302	0.296		0.268	0.263	0.24	0.27		0.275
NCI-H1666	0.966	0.965	0.96	1	0.95	0.759	0.775	0.773	0.708	0.757	0.914	0.86	0.901	0.879	0.817	0.609	0.527	0.539	0.584	0.544
LC-2-ad	0.961	0.885		0.932	0.926	0.863	0.91	0.845	0.853	0.918	0.86	0.81	0.75	0.546	0.787	0.616	0.607	0.577	0.558	0.57
SK-LU-1	0.184	0.174	0.187	0.223	0.202	1.16	1.08	1.32	1.16	1.17	0.4	0.32	0.309	0.362	0.323	0.574	0.507	0.487	0.581	0.419
